Columns and labels:
[1] = test system: MDR1; test: in vitro; conditions: dog; for Papp A→B at 120 min, 5 μM: MDCK-MDR1, pH 7.4, MDCK-MDR1: Papp A-B (10^−6, cm/s); for Papp B→A at 120 min, 5 μM: MDCK-MDR1, pH 7.4, MDCK-MDR1: Papp B-A (10^−6, cm/s)
[2] = test system: SMN protein; test: SMN protein assay (MSD) in SMA patient fibroblasts (GM03813); format: cell-based, human
Summary of the method: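 SMA patient fibroblasts GM03813 (7000 cells/well) treated 48 h with compounds from 2.5 μM to 0.6 nM. Lysate SMN protein quantified by MSD immunoassay against an SMN standard curve (1 to 19.5 μg/ml) on each plate, giving absolute amounts.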

[3] = test system: MDR1 (P-gp); test: MDCK-MDR1 permeability assay, blood-brain-barrier penetration potential; conditions: dog, MDCK-MDR1, pH 7.4, MDCK-MDR1 Efflux Ratio
[4] = test system: MDR1-MDCK cell monolayers; conditions: dog, MDCK-MDR1, 120 min, 5 μM, pH 7.4

Cn1ccc(-c2cc(O)c(-c3cnc(N(C4CC4)[C@H]4C[C@@H]5CCC(N5)[C@H]4F)cn3)cc2F)cc1=O (single isomer, unassigned) [Compound 38E2]
Papp A→B at 120 min, 5 μM [1]: 1.75 ×10⁻⁶ cm/s
Papp B→A at 120 min, 5 μM [1]: 57.7 ×10⁻⁶ cm/s
EC50 [2]: 501 to 10000 nM
efflux ratio at 120 min, 5 μM [3]: 33
MDCK-MDR1: % Recov A-B (%) [4]: 82%
MDCK-MDR1: % Recov B-A (%) [4]: 82%

O=c1cc(-c2cc(O)c(-c3cnc(N(C4CC4)[C@@H]4CC5CC[C@H](N5)[C@@H]4F)cn3)cc2F)ccn1CF (single isomer, unassigned) [Compound 39E1]
Papp A→B at 120 min, 5 μM [1]: 2.1 ×10⁻⁶ cm/s
Papp B→A at 120 min, 5 μM [1]: 64.2 ×10⁻⁶ cm/s
EC50 [2]: 501 to 10000 nM
efflux ratio at 120 min, 5 μM [3]: 31
MDCK-MDR1: % Recov A-B (%) [4]: 70%
MDCK-MDR1: % Recov B-A (%) [4]: 89%

O=c1cc(-c2cc(O)c(-c3cnc(N(C4CC4)[C@H]4C[C@@H]5CCC(N5)[C@H]4F)cn3)cc2F)ccn1CF (single isomer, unassigned) [Compound 39E2]
Papp A→B at 120 min, 5 μM [1]: 2.58 ×10⁻⁶ cm/s
Papp B→A at 120 min, 5 μM [1]: 62 ×10⁻⁶ cm/s
EC50 [2]: 501 to 10000 nM
efflux ratio at 120 min, 5 μM [3]: 24
MDCK-MDR1: % Recov A-B (%) [4]: 82%
MDCK-MDR1: % Recov B-A (%) [4]: 81%

Oc1cc(-c2cn[nH]c2)c(F)cc1-c1cnc(N(C2CC2)[C@@H]2CC3CC[C@H](N3)[C@@H]2F)cn1 (single isomer, unassigned) [Compound 41E1]
Papp A→B at 120 min, 5 μM [1]: 6.63 ×10⁻⁶ cm/s
Papp B→A at 120 min, 5 μM [1]: 39.2 ×10⁻⁶ cm/s
EC50 [2]: 501 to 10000 nM
efflux ratio at 120 min, 5 μM [3]: 8
MDCK-MDR1: % Recov A-B (%) [4]: 54%
MDCK-MDR1: % Recov B-A (%) [4]: 75%

Oc1cc(-c2cn[nH]c2)c(F)cc1-c1cnc(N(C2CC2)[C@H]2C[C@@H]3CCC(N3)[C@H]2F)cn1 (single isomer, unassigned) [Compound 41E2]
Papp A→B at 120 min, 5 μM [1]: 6.09 ×10⁻⁶ cm/s
Papp B→A at 120 min, 5 μM [1]: 34.4 ×10⁻⁶ cm/s
EC50 [2]: 101 to 500 nM
efflux ratio at 120 min, 5 μM [3]: 6
MDCK-MDR1: % Recov A-B (%) [4]: 54%
MDCK-MDR1: % Recov B-A (%) [4]: 72%

CN(c1cnc(-c2ccc(-c3cnn(CF)c3)cc2O)cn1)[C@H]1C[C@@H]2CCC(N2)[C@H]1F (single isomer, unassigned) [Compound 42E2]
Papp A→B at 120 min, 5 μM [1]: 5.95 ×10⁻⁶ cm/s
Papp B→A at 120 min, 5 μM [1]: 31.8 ×10⁻⁶ cm/s
EC50 [2]: 501 to 10000 nM
efflux ratio at 120 min, 5 μM [3]: 5
MDCK-MDR1: % Recov A-B (%) [4]: 44%
MDCK-MDR1: % Recov B-A (%) [4]: 60%

COc1cc(-c2ccc(-c3cnc(N(C)[C@@H]4CC5CC[C@H](N5)[C@@H]4F)cn3)c(O)c2)ccn1 (single isomer, unassigned) [Compound 43E1]
Papp A→B at 120 min, 5 μM [1]: 1.06 ×10⁻⁶ cm/s
Papp B→A at 120 min, 5 μM [1]: 1.31 ×10⁻⁶ cm/s
EC50 [2]: 101 to 500 nM
efflux ratio at 120 min, 5 μM [3]: 1
MDCK-MDR1: % Recov A-B (%) [4]: 18%
MDCK-MDR1: % Recov B-A (%) [4]: 50%

COc1cc(-c2ccc(-c3cnc(N(C)[C@H]4C[C@@H]5CCC(N5)[C@H]4F)cn3)c(O)c2)ccn1 (single isomer, unassigned) [Compound 43E2]
Papp A→B at 120 min, 5 μM [1]: 0.98 ×10⁻⁶ cm/s
Papp B→A at 120 min, 5 μM [1]: 1.35 ×10⁻⁶ cm/s
EC50 [2]: 16 to 50 nM
efflux ratio at 120 min, 5 μM [3]: 1
MDCK-MDR1: % Recov A-B (%) [4]: 12%
MDCK-MDR1: % Recov B-A (%) [4]: 49%

COc1cc(-c2ccc(-c3cnc(N(C)[C@@H]4CC5CC[C@H](N5)[C@@H]4F)cn3)c(O)c2)cc(F)n1 (single isomer, unassigned) [Compound 44E1]
Papp A→B at 120 min, 5 μM [1]: 2.33 ×10⁻⁶ cm/s
Papp B→A at 120 min, 5 μM [1]: 5.55 ×10⁻⁶ cm/s
EC50 [2]: 501 to 10000 nM
efflux ratio at 120 min, 5 μM [3]: 2
MDCK-MDR1: % Recov A-B (%) [4]: 14%
MDCK-MDR1: % Recov B-A (%) [4]: 41%

COc1cc(-c2ccc(-c3cnc(N(C)[C@H]4C[C@@H]5CCC(N5)[C@H]4F)cn3)c(O)c2)cc(F)n1 (single isomer, unassigned) [Compound 44E2]
Papp A→B at 120 min, 5 μM [1]: 3.33 ×10⁻⁶ cm/s
Papp B→A at 120 min, 5 μM [1]: 9.1 ×10⁻⁶ cm/s
EC50 [2]: 101 to 500 nM
efflux ratio at 120 min, 5 μM [3]: 3
MDCK-MDR1: % Recov A-B (%) [4]: 13%
MDCK-MDR1: % Recov B-A (%) [4]: 52%

CN(c1cnc(-c2ccc(-c3ccn(C)c(=O)c3)cc2O)cn1)[C@H]1C[C@@H]2CCC(N2)[C@H]1F (single isomer, unassigned) [Compound 45E2]
Papp A→B at 120 min, 5 μM [1]: 1.9 ×10⁻⁶ cm/s
Papp B→A at 120 min, 5 μM [1]: 65.6 ×10⁻⁶ cm/s
EC50 [2]: 51 to 100 nM
efflux ratio at 120 min, 5 μM [3]: 35
MDCK-MDR1: % Recov A-B (%) [4]: 87%
MDCK-MDR1: % Recov B-A (%) [4]: 87%

CN(c1cnc(-c2ccc(-c3ccn(CF)c(=O)c3)cc2O)cn1)[C@@H]1CC2CC[C@H](N2)[C@@H]1F (single isomer, unassigned) [Compound 46E1]
Papp A→B at 120 min, 5 μM [1]: 1.69 ×10⁻⁶ cm/s
Papp B→A at 120 min, 5 μM [1]: 37.9 ×10⁻⁶ cm/s
EC50 [2]: 501 to 10000 nM
efflux ratio at 120 min, 5 μM [3]: 22
MDCK-MDR1: % Recov A-B (%) [4]: 74%
MDCK-MDR1: % Recov B-A (%) [4]: 78%

CN(c1cnc(-c2ccc(-c3ccn(CF)c(=O)c3)cc2O)cn1)[C@H]1C[C@@H]2CCC(N2)[C@H]1F (single isomer, unassigned) [Compound 46E2]
Papp A→B at 120 min, 5 μM [1]: 2 ×10⁻⁶ cm/s
Papp B→A at 120 min, 5 μM [1]: 43 ×10⁻⁶ cm/s
EC50 [2]: 101 to 500 nM
efflux ratio at 120 min, 5 μM [3]: 22
MDCK-MDR1: % Recov A-B (%) [4]: 77%
MDCK-MDR1: % Recov B-A (%) [4]: 80%

CN(c1cnc(-c2ccc(-c3cc(=O)n(C)cn3)cc2O)cn1)[C@@H]1CC2CC[C@H](N2)[C@@H]1F (single isomer, unassigned) [Compound 47E1]
Papp A→B at 120 min, 5 μM [1]: 2.32 ×10⁻⁶ cm/s
Papp B→A at 120 min, 5 μM [1]: 52.8 ×10⁻⁶ cm/s
EC50 [2]: 101 to 500 nM
efflux ratio at 120 min, 5 μM [3]: 23
MDCK-MDR1: % Recov A-B (%) [4]: 74%
MDCK-MDR1: % Recov B-A (%) [4]: 78%

CN(c1cnc(-c2ccc(-c3cc(=O)n(C)cn3)cc2O)cn1)[C@H]1C[C@@H]2CCC(N2)[C@H]1F (single isomer, unassigned) [Compound 47E2]
Papp A→B at 120 min, 5 μM [1]: 3.35 ×10⁻⁶ cm/s
Papp B→A at 120 min, 5 μM [1]: 51.1 ×10⁻⁶ cm/s
EC50 [2]: 51 to 100 nM
efflux ratio at 120 min, 5 μM [3]: 15
MDCK-MDR1: % Recov A-B (%) [4]: 84%
MDCK-MDR1: % Recov B-A (%) [4]: 90%

COc1cc(-c2ccc(-c3cnc(N(C)[C@H]4C[C@@H]5CCC(N5)[C@H]4F)cn3)c(O)c2)ncn1 (single isomer, unassigned) [Compound 48E2]
Papp A→B at 120 min, 5 μM [1]: 5.38 ×10⁻⁶ cm/s
Papp B→A at 120 min, 5 μM [1]: 13.8 ×10⁻⁶ cm/s
EC50 [2]: 51 to 100 nM
efflux ratio at 120 min, 5 μM [3]: 3
MDCK-MDR1: % Recov A-B (%) [4]: 28%
MDCK-MDR1: % Recov B-A (%) [4]: 57%

Cn1cc(-c2ccc(-c3cnc(N(C4CC4)[C@@H]4CC5CC[C@H](N5)[C@@H]4F)cn3)c(O)c2)cn1 (single isomer, unassigned) [Compound 49E1]
Papp A→B at 120 min, 5 μM [1]: 4.73 ×10⁻⁶ cm/s
Papp B→A at 120 min, 5 μM [1]: 26.5 ×10⁻⁶ cm/s
EC50 [2]: 501 to 10000 nM
efflux ratio at 120 min, 5 μM [3]: 6
MDCK-MDR1: % Recov A-B (%) [4]: 47%
MDCK-MDR1: % Recov B-A (%) [4]: 65%

Cn1cnc(-c2cc(O)c(-c3cnc(N(C4CC4)[C@@H]4CC5CC[C@H](N5)[C@@H]4F)cn3)cc2F)cc1=O (single isomer, unassigned) [Compound 50E1]
Papp A→B at 120 min, 5 μM [1]: 1.59 ×10⁻⁶ cm/s
Papp B→A at 120 min, 5 μM [1]: 46.4 ×10⁻⁶ cm/s
EC50 [2]: 501 to 10000 nM
efflux ratio at 120 min, 5 μM [3]: 29
MDCK-MDR1: % Recov A-B (%) [4]: 82%
MDCK-MDR1: % Recov B-A (%) [4]: 92%

Cn1cnc(-c2cc(O)c(-c3cnc(N(C4CC4)[C@H]4C[C@@H]5CCC(N5)[C@H]4F)cn3)cc2F)cc1=O (single isomer, unassigned) [Compound 50E2]
Papp A→B at 120 min, 5 μM [1]: 1.29 ×10⁻⁶ cm/s
Papp B→A at 120 min, 5 μM [1]: 49.3 ×10⁻⁶ cm/s
EC50 [2]: 501 to 10000 nM
efflux ratio at 120 min, 5 μM [3]: 38
MDCK-MDR1: % Recov A-B (%) [4]: 81%
MDCK-MDR1: % Recov B-A (%) [4]: 90%

COc1cc(-c2ccc(-c3cnc(N(C4CC4)[C@@H]4CC5CC[C@H](N5)[C@@H]4F)cn3)c(O)c2)ccn1 (single isomer, unassigned) [Compound 51E1]
Papp A→B at 120 min, 5 μM [1]: 1.5 ×10⁻⁶ cm/s
Papp B→A at 120 min, 5 μM [1]: 3.19 ×10⁻⁶ cm/s
EC50 [2]: 501 to 10000 nM
efflux ratio at 120 min, 5 μM [3]: 2
MDCK-MDR1: % Recov A-B (%) [4]: 8%
MDCK-MDR1: % Recov B-A (%) [4]: 34%

COc1cc(-c2ccc(-c3cnc(N(C4CC4)[C@H]4C[C@@H]5CCC(N5)[C@H]4F)cn3)c(O)c2)ccn1 (single isomer, unassigned) [Compound 51E2]
Papp A→B at 120 min, 5 μM [1]: 1.27 ×10⁻⁶ cm/s
Papp B→A at 120 min, 5 μM [1]: 2.99 ×10⁻⁶ cm/s
EC50 [2]: 501 to 10000 nM
efflux ratio at 120 min, 5 μM [3]: 2
MDCK-MDR1: % Recov A-B (%) [4]: 11%
MDCK-MDR1: % Recov B-A (%) [4]: 34%
